Laboratory results published in patent US11672785B2, “Tetrahydro-1H-pyrido [3,4-b]indole anti-estrogenic drugs” (Olema Pharmaceuticals, Inc., priority 2015, dated 2023).
pIC50: −log10 of the molar value. “Also recorded” adds a separate entry of the source. Like-named read-outs stand apart in the source and are kept apart here.

Legend:
[1] = system: estrogen-responsive reporter gene, ERE-tk109-Luc; test: Inhibition of E2-induced transcription, ERE-tk109-Luc reporter in transfected MCF-7 cells; format: cell-based; conditions: Homo sapiens, MCF7; for IC50: mean of n, read-out: Inhibition of E2-stimulated transcription in breast cells pIC50 (converted)
Method: Representative compounds were tested for their inhibitory activity of estrogen according to the assay methods described in Hodges-Gallagher, L., Valentine, C. […] Specifically, MCF-7 cells were transiently transfected with an estrogen-responsive reporter gene, ERE-tk109-Luc. […] Luciferase activity was normalized to activity of E2 alone and IC50's were calculated using the least squares fit method.

[2] = Free fraction of drug in human plasma, rapid equilibrium dialysis; format: in vitro ADME
Source text: (§1) Method for detecting free fraction of drug in plasma: Compounds were screened for binding to human and mouse plasma (Bioreclamation, IVT) using a rapid equilibrium dialysis device (Thermo Fisher Scientific) and compounds subsequently detected by LC-MS/MS. Percent free drug equals the concentration of compound in buffer chamber divided by that in the […] chamber×100.

[3] = Free fraction of drug in mouse plasma, rapid equilibrium dialysis; format: in vitro ADME
Source text: as §1

[4] = system: MCF-7 breast cancer cells; test: Inhibition of E2-stimulated proliferation of MCF-7 cells (Cyquant); format: cell-based; conditions: Homo sapiens, MCF7; for IC50: mean of n, read-out: Inhibition of E2-stimulated proliferation in breast cells pIC50 (converted)
Method: Proliferation of MCF-7 breast cancer cells was measured using Cyquant, a fluorescent DNA-binding dye (Thermo Fisher Scientific). MCF-7 cells were treated with antiestrogens in triplicate in hormone-depleted medium for 5-7 days in the presence of 100 pM E2. Fluorescent activity was normalized to the activity of E2 alone and IC50's were calculated using the least squares fit method.

ERα [5] = target: T1, ERα (Homo sapiens (Human), UniProt P03372); test: ERα levels in MCF-7 cells, in-cell western (Colorimetric In-Cell ELISA); format: cell-based; conditions: for Relative change in ERα levels in breast cells % Veh: MCF-7, 24 hours
Method: IC50's were calculated using the least squares fit method. Error bars represent S.E.M from triplicate wells.

ERα [6] = target: T1, ERα; test: ER degradation in MCF-7 cells, immunoblot; format: cell-based; conditions: 100 nM, 24 hours, serum-free medium
Method: MCF-7 cells were treated with 100 nM anti-estrogen for 24 hours in serum-free medium and protein extracts immunoblotted with D12 antibody to ERα and β-actin (Santa Cruz Biotechnology). The numbers below the blots represent the optical density of ERα bands of each treatment relative to percent vehicle after normalization to β-actin.

MCF-7 (HER2/neu) tumors = test: Xenograft study, Clone 18 (MCF7/Her2/neu) tumors in athymic ovariectomized nu/nu mice; format: in vivo; conditions: oral gavage, 10 mg/kg, FIGS. 5A-B
Method: Xenograft studies were conducted by the Preclinical Therapeutics Core at the University of California, San Francisco in accordance with the Institutional Animal Care and Use Committee (IACUC) guidelines. Clone 18 cells (MCF7/Her2/neu) cells were grown in culture and implanted into athymic ovariectomized nu/nu mice. To stimulate tumor growth 0.36 mg estradiol 90 day release pellets (Innovative Research, Saratoga, Fla.) were implanted along with cells. When tumors reached 150-250 cubic millimeters the pellets were exchanged for 0.18 mg estradiol 90 day release pellets and divided into groups of six mice per treatment group. One of those groups received vehicle only (0.5% CMC+8% DMSO), and Compound B and Compound C each had 2 groups treated with either 10 or 100 mg/kg compound. Compounds were administered by oral gavage twice daily, except once daily on weekends/holidays for the first 21 days, and once daily after day 21. Tumors and bodyweight were measured twice weekly.

[7] = Pharmacokinetics in BALB/c female mice, oral gavage; format: in vivo; conditions: for oral drug exposure, free fraction taken into account, vs equal dose of Compounds 107 and 102: mice, oral gavage, FIGS. 1A-1B
Method: Pharmacokinetics were studied in BALB/c female mice. For each arm, three BALB/c female mice were given 5 mg/kg of compound in 0.5% CMC formulation by oral gavage. Concentration of compounds in mouse plasma and their metabolites were analyzed at each time point using LC-MS/MS. The concentrations were adjusted for the free fraction of drug in mouse plasma (method below). Area under the curve was calculated using the trapezoidal rule for 0-24 hours.

[8] = system: AP activity in ECC-1 cells; test: Alkaline phosphatase (AP) assay in ECC-1 uterine cells, antagonist mode (co-treated with 500 pM E2); format: cell-based, human; conditions: 100 nM antiestrogen
Method: Method for performing the alkaline phosphatase (AP) assay. ECC-1 cells were trypsinized and resuspended in hormone-depleted media and plated at a density of 15 k cells per well into a 96-well plate for at least 4 hours. Cells were treated with antiestrogens for 3 days and plates were subsequently frozen at −80° C. […] AP activity was normalized to the activity of E2 alone.

[9] = system: AP activity in ECC-1 cells; test: Alkaline phosphatase (AP) assay in ECC-1 uterine cells, agonist mode; format: cell-based, human; conditions: mean of n
Method: Method for performing the alkaline phosphatase (AP) assay. ECC-1 cells were trypsinized and resuspended in hormone-depleted media and plated at a density of 15 k cells per well into a 96-well plate for at least 4 hours. Cells were treated with antiestrogens for 3 days and plates were subsequently frozen at −80° C. Thawed plates were incubated with a chromogenic substrate of AP, p-nitrophenyl phosphate (Thermo Fisher Scientific), for 40 minutes at 40° C. and absorbances were read at 405 nm. AP activity was normalized to the activity of E2 alone. […] A representative result for induction of AP activity in uterine cells (% E2) is shown below in tabular form: […]

[10] = MCF-7, 100 pM E2, 22 hours, read-out: inhibition of E2-induced transcription in breast cells IC50
[11] = Table 1, read-out: ERE-Luc IC50
[12] = MCF-7, 100 pM E2, 5-7 days, read-out: inhibition of E2-stimulated proliferation in breast cells IC50
[13] = Table 1, read-out: MCF-7 Proliferation IC50
[14] = BALB/c mice, 5 mg/kg oral gavage

T1 sequence (P03372 whole entry): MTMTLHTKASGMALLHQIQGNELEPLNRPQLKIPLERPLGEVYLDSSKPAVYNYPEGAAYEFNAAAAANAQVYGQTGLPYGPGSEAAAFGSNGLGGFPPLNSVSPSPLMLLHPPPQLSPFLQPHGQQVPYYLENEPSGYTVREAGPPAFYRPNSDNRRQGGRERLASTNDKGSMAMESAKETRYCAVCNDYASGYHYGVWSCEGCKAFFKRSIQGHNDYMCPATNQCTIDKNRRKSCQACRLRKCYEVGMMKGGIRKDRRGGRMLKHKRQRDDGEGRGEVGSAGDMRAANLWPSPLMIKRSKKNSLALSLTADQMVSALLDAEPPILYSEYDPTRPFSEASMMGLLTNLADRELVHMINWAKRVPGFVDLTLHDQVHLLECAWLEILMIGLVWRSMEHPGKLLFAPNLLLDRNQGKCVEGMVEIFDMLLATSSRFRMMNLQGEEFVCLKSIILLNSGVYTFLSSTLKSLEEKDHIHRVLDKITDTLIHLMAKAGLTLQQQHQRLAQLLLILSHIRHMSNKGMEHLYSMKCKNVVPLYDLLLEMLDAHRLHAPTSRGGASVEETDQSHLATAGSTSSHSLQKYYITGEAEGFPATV

| Compound | pIC50 [1, 10] | pIC50 [1, 11] | IC50 [1] [nM] | fraction unbound [2] | fraction unbound [3] | pIC50 [4, 12] | pIC50 [4, 13] | IC50 [4] [nM] | ER degradation in MCF-7 cells (in-cell western, FIG. 2) (ERα [5]; 24 hours) | Relative change in ERα levels in breast cells % Veh (ERα [5]) [% Veh] | ER degradation in MCF-7 cells (immunoblot, FIG. 7) (ERα [6]) | tumor shrinkage in xenografted mice (MCF-7 (HER2/neu) tumors) | 24 hour drug exposure compared to other compounds [7, 14] | half-life [7, 14] | oral bioavailability [7, 14] | oral drug exposure, free fraction taken into account, vs equal dose of Compounds 107 and 102 [7] | residual AP activity in uterine cells (% of E2 alone) [8] [% E2] | Induction of Alkaline Phosphatase (AP) % E2 [9] [% E2] |
| --- | --- | --- | --- | --- | --- | --- | --- | --- | --- | --- | --- | --- | --- | --- | --- | --- | --- | --- |
| C[C@@H]1Cc2c([nH]c3ccccc23)[C@@H](c2c(F)cc(/C=C/C(=O)O)cc2F)N1CC(C)(C)F [AZD9496, (E)-3-(3,5-Difluoro-4-((1R,3R)-2-(2-fluoro-2-methylpropyl)-3-methyl-2,3,4,9-tetrahydro-1H-pyrido[3,4-b]indol-1-yl)phenyl)acrylic Acid, reference compound] | 9.70 | 9.70 | 0.631 | 0.00308 | 0.00214 | – | – | – | – | – | – | – | – | – | – | – | – | – |
| CCCN1CC(Oc2ccc([C@@H]3c4[nH]c5ccccc5c4C[C@@H](C)N3CC(C)(C)F)cc2F)C1 [Compound A, (1R,3R)-2-(2-fluoro-2-methylpropyl)-1-(3-fluoro-4-((1-propylazetidin-3-yl)oxy)phenyl)-3-methyl-2,3,4,9-tetrahydro-1H-pyrido[3,4-b]indole] | 8.53 | 8.53 | – | – | – | 8.12 | 8.12 | – | – | – | – | – | – | – | – | – | – | – |
| CCCN1CC(Oc2ccc([C@@H]3c4[nH]c5ccccc5c4C[C@@H](C)N3CC(C)(C)F)cc2)C1 [Compound B, (1R,3R)-2-(2-fluoro-2-methylpropyl)-3-methyl-1-(4-((1-propylazetidin-3-yl)oxy)phenyl)-2,3,4,9-tetrahydro-1H-pyrido[3,4-b]indole] | 8.36 | 8.36 | 4.37 | 0.00036 | 0.00027 | 8.34 | 8.34 | 7.76 | degrades the estrogen receptor | 45 | degrades the estrogen receptor | outstandingly potent in shrinking human breast cancer xenografts; also recorded: shrinks MCF-7 (HER2/neu) tumors | better | high | high | substantially higher | – | – |
| C[C@@H]1Cc2c([nH]c3ccccc23)[C@@H](c2ccc(OCCN3CC(CF)C3)cc2)N1CC(C)(C)F [Compound C, (1R,3R)-2-(2-fluoro-2-methylpropyl)-1-(4-(2-(3-(fluoromethyl)azetidin-1-yl)ethoxy)phenyl)-3-methyl-2,3,4,9-tetrahydro-1H-pyrido[3,4-b]indole] | 7.97 | 7.97 | 8.13 | 0.00151 | 0.00092 | 8.89 | 7.84 | 11.7 | – | 42 | – | outstandingly potent in shrinking human breast cancer xenografts | – | – | – | substantially higher | – | – |
| C[C@@H]1Cc2c([nH]c3ccccc23)[C@@H](c2c(F)cc(OCCN3CC(CF)C3)cc2F)N1CC(C)(C)F [Compound D, (1R,3R)-1-(2,6-difluoro-4-(2-(3-(fluoromethyl)azetidin-1-yl)ethoxy)phenyl)-2-(2-fluoro-2-methylpropyl)-3-methyl-2,3,4,9-tetrahydro-1H-pyrido[3,4-b]indole] | 8.00 | 8.00 | 9.55 | 0.00044 | 0.00036 | 8.08 | 8.08 | 10.5 | – | – | – | – | – | – | – | – | 4.07 | – |
| C[C@]12CC[C@@H]3c4ccc(O)cc4C[C@@H](CCCCCCCCC[S+]([O-])CCCC(F)(F)C(F)(F)F)[C@H]3[C@@H]1CC[C@@H]2O (stereo partly drawn) [Fulvestrant, reference compound] | 8.85 | – | 1.91 | 1e-05 | – | 8.68 | – | 2.63 | – | – | – | – | – | – | – | – | – | – |
| CCCN1CC(Oc2cc(F)c([C@@H]3c4[nH]c5ccccc5c4C[C@@H](C)N3CC(C)(C)F)c(F)c2)C1 [Goodacre Compound 107, (1R,3R)-1-(2,6-difluoro-4-((1-propylazetidin-3-yl)oxy)phenyl)-2-(2-fluoro-2-methylpropyl)-3-methyl-2,3,4,9-tetrahydro-1H-pyrido[3,4-b]indole, reference compound] | – | – | 4.37 | 0.00013 | 0.00012 | – | – | 7.59 | – | – | – | – | – | – | – | – | – | 0.00 |
| Oc1ccc2c(c1)CC[C@H](c1ccccc1)[C@@H]2c1ccc(OCCN2CCCC2)cc1 [Lasofoxifene, reference compound] | 8.34 | – | – | – | – | 7.96 | – | – | – | – | – | – | – | – | – | – | – | – |
